Test results taken from patent publication US20110263546A1, “Polyhydroxylated Bile Acids for Treatment of Biliary Disorders” (priority 2008, published 2011).
Entries after “also recorded” stand apart in the source; their conditions may differ. Read-outs that look alike come from different tables or passages of the source.

How the values were obtained:
[1] = test system: wild-type mice; details: for Infusion dose tolerated without death (highest dosage tested) / MTD compared with that of UDC: wild-type mice, tail vein infusion
Method: The maximum tolerated dose of bile acid according to the invention was determined. This test is carried out in two ways. First, as a pilot experiment of bile duct cannulation, a bolus of bile acid was infused into mice under anesthesia to measure its acute toxicity to animals. The responses of mice such as breath rate, bile flow rate, histological changes by H&E staining and the like were recorded. […] Using this tolerance level as a reference point, the acute toxicity of the bile acid was determined.
Bile collected was used for HPLC analysis.

[2] = test system: wild-type mice; experiment: Bile flow rate (BFR) by bile duct cannulation after tail vein infusion; type: in vivo, mouse; details: for Bile flow rate, UDC compared with THBAs at similar quantity: 65 μmol/kg body weight infusion; for Bile flow rate on infusion of increasing quantities: 65-400 μmol/kg BW (6β,7αTHBA), 65 and 200 μmol/kg BW (6α,7αTHBA)
Method: After 20 minutes of bile flow equilibration, bile was collected into pre-weighed tubes at 5-minute intervals for 10 minutes. A bolus of 3α,6α,7α,12α-tetrahydroxy-5β-cholan-24-oic acid (6α,7αTHBA, pH.7.4-7.6), 3α,6β,7α,12α-tetrahydroxy-5β-cholan-24-oic acid (6β,7αTHBA, pH.7.4-7.6), ursodeoxycholic acid (UDC, pH.7.4-7.6) or cholic acid (100 μmol/kg body weight) was then infused into the tail vein over a 20-second interval. Bile was then further collected through the cannula at 2-minute intervals for 10 or 20 minutes, followed by 10-minute intervals for 30 minutes. The bile flow rate was calculated by weighing the tubes containing the collected bile.

[3] = test system: TKO, bsep−/−, mdr1a/b−/− and wildtype mice; details: female TKO mice, 0.5% CA diet
Method: Mice were maintained in a 12-hour light and dark cycle, at 22° C., with free access to food and water. The mice were fed a normal diet except where specified otherwise in the results.
Chronic toxicity is tested by supplementing the diets of mice (wild-type as well as the hypersensitive bsep KO mice) with 0.1%-0.5% β-muricholate or bile acid according to the invention. Control feeding experiments use cholate as well as ursodeoxycholate.

[4] = test system: TKO, bsep−/−, mdr1a/b−/− and wildtype mice; details: 0.5% cholate diet, cited from earlier work
[5] = test system: mice; details: cited from earlier work
[6] = mice, intravenous bolus (tail vein) infusion under anesthesia

SMILES	Maximum tolerated dose (MTD) [1, 6]	Infusion dose tolerated without death (highest dosage tested) [1]	MTD compared with that of UDC [1]	Bile flow rate, UDC compared with THBAs at similar quantity [2]	Bile flow rate on infusion of increasing quantities [2]	further results
C[C@H](CCC(=O)O)[C@H]1CC[C@H]2[C@@H]3[C@H](O)[C@@H](O)[C@@H]4C[C@H](O)CC[C@]4(C)[C@H]3C[C@H](O)[C@]12C [6β,7αTHBA, 3α,6β,7α,12α-tetrahydroxy-5β-cholan-24-oic acid]	> 500 μmol/kg of body weight	500 μmol/kg of body weight	several times higher	similar	corresponding increase in bile flow rate	–
C[C@H](CCC(=O)O)[C@H]1CC[C@H]2[C@@H]3[C@H](O)C[C@@H]4C[C@H](O)CC[C@]4(C)[C@H]3C[C@H](O)[C@]12C [CA, 3α,7α,12α-trihydroxy-5β-cholan-24-oic acid]	–	–	–	–	–	Time until terminally ill or died [3]: 3 to 7 days; Time to death ([4]; female TKO mice): within a week; Time to death ([4]; male bsep KO mice): ≤ 10 days
C[C@H](CCC(=O)O)[C@H]1CC[C@H]2[C@@H]3[C@H](O)[C@H](O)[C@@H]4C[C@H](O)CC[C@]4(C)[C@H]3C[C@H](O)[C@]12C [6α,7αTHBA, 3α,6α,7α,12α-tetrahydroxy-5β-cholan-24-oic acid]	> 400 μmol/kg of body weight	400 μmol/kg of body weight	several times higher	similar	corresponding increase in bile flow rate	Effect on bile flow rate (BFR) ([2]; bolus 100 μmol/kg body weight into tail vein): stimulates bile flow rate; also recorded: promotes bile flow
C[C@H](CCC(=O)O)[C@H]1CC[C@H]2[C@@H]3[C@@H](O)C[C@@H]4C[C@H](O)CC[C@]4(C)[C@H]3CC[C@]12C [UDC, ursodeoxycholic acid, reference compound]	–	–	–	–	–	Infused dose that caused death ([1]; FVB/NJ, mouse, in vivo): ≥ 70 μmol/kg body weight; Maximum tolerated dose (MTD) ([1]; mouse, in vivo, iv): 65 μmol/kg of body weight; LD50 ([5]; mouse, in vivo, iv): ~600 µmol/kg; Oral LD50 relative to intravenous LD50 ([5]; rodents): at least 15 times
